Like-named read-outs stand apart in the source and are kept apart here.
What was measured:
[1] = tested on: S. aureus UBMS 88-5 (tetM); test: MIC, agar dilution; format: cell-based; conditions: S. aureus UBMS 88-5 TetM; Table IA; unit assumed
[2] = tested on: S. aureus UBMS 88-4 (Sensitive); test: MIC, agar dilution; format: cell-based; conditions: S. aureus UBMS 88-4; Table IA; unit assumed
[3] = tested on: S. aureus UBMS 90-1 (tetM); test: MIC, agar dilution; format: cell-based; conditions: S. aureus UBMS 90-1 TetM; Table IA; unit assumed
[4] = tested on: S. aureus UBMS 90-2 (tetM); test: MIC, agar dilution; format: cell-based; conditions: S. aureus UBMS 90-2 TetM; Table IA; unit assumed
[5] = tested on: S. aureus UBMS 90-3 (Sensitive); test: MIC, agar dilution; format: cell-based; conditions: S. aureus UBMS 90-3; Table IA; unit assumed
[6] = tested on: S. aureus UBMS 88-7 (tetK); test: MIC, agar dilution; format: cell-based; conditions: S. aureus UBMS 88-7 TetK; Table IA; unit assumed
[7] = tested on: S. aureus IVES 2943 (meth. resistant); test: MIC, agar dilution; format: cell-based; conditions: S. aureus IVES 2943; Table IA; unit assumed
[8] = tested on: S. aureus IVES 1983 (meth. resistant); test: MIC, agar dilution; format: cell-based; conditions: S. aureus IVES 1983; Table IA; unit assumed
[9] = tested on: S. aureus ATCC 29213 (Sensitive); test: MIC, agar dilution; format: cell-based; conditions: S. aureus ATCC 29213; Table IA; unit assumed
[10] = tested on: S. aureus Smith (Sensitive); test: MIC, agar dilution; format: cell-based; conditions: S. aureus SMITH (MP); Table IA; unit assumed
[11] = tested on: S. haemolyticus AVAH 88-3; test: MIC, agar dilution; format: cell-based; conditions: S. hemolyticus AVHAH 88-3; Table IA; unit assumed
[12] = tested on: E. faecalis 12201; test: MIC, agar dilution; format: cell-based; conditions: Enterococcus 12201; Table IA; unit assumed
[13] = tested on: E. faecalis ATCC 29212; test: MIC, agar dilution; format: cell-based; conditions: E. faecalis ATCC 29212; Table IA; unit assumed
[14] = tested on: E. coli UBMS 88-1 (tetB); test: MIC, agar dilution; format: cell-based; conditions: E. coli UBMS 88-1 TetB; Table IA; unit assumed
[15] = tested on: E. coli UBMS 89-1 (tetM); test: MIC, agar dilution; format: cell-based; conditions: E. coli UBMS 89-1 TetM; Table IA; unit assumed
[16] = tested on: E. coli UBMS 89-2 (Sensitive); test: MIC, agar dilution; format: cell-based; conditions: E. coli UBMS 89-2 Tet Sens.; Table IA; unit assumed
[17] = tested on: E. coli ATCC 25922; test: MIC, agar dilution; format: cell-based; conditions: E. coli ATCC 25922; Table IA; unit assumed
[18] = tested on: E. coli UBMS 90-4 (tetM); test: MIC, agar dilution; format: cell-based; conditions: E. coli UBMS 90-4 TetM; Table IA; unit assumed
[19] = tested on: E. coli MC4100 Tet sens.; test: MIC, agar dilution (Table IA); format: cell-based; conditions: unit assumed
[20] = tested on: E. coli MC4100 TetB; test: MIC, agar dilution (Table IA); format: cell-based; conditions: unit assumed
[21] = tested on: E. coli PRP1 TetA; test: MIC, agar dilution (Table IA); format: cell-based; conditions: unit assumed
[22] = tested on: E. coli J3272 TetC; test: MIC, agar dilution (Table IA); format: cell-based; conditions: unit assumed
[23] = tested on: E. coli J2175; test: MIC, agar dilution (Table IA); format: cell-based; conditions: unit assumed
[24] = tested on: E. coli BAJ9003; test: MIC, agar dilution (Table IA); format: cell-based
[25] = tested on: E. coli UBMS 90-5; test: MIC, agar dilution (Table IA); format: cell-based; conditions: unit assumed
[26] = tested on: E. coli #311 (MP); test: MIC, agar dilution (Table IA); format: cell-based; conditions: unit assumed
[27] = tested on: E. coli J3272 TetD; test: MIC, agar dilution (Table IA); format: cell-based; conditions: unit assumed
[28] = tested on: S. mariescens FDOR 8733; test: MIC, agar dilution (Table IA); format: cell-based; conditions: unit assumed
[29] = tested on: X. maltophilia NEMC 87210; test: MIC, agar dilution (Table IA); format: cell-based; conditions: unit assumed
[30] = tested on: Ps. acruginosa ATCC 27853; test: MIC, agar dilution (Table IA); format: cell-based; conditions: unit assumed
[31] = tested on: S. aureus NEMC 8769/89-4; test: MIC, agar dilution (Table IA); format: cell-based; conditions: unit assumed
[32] = tested on: S. aureus ROSE (MP); test: MIC, agar dilution (Table IA); format: cell-based; conditions: unit assumed
[33] = tested on: S. aureus SMITH (sens); test: In vivo antibacterial evaluation, acute lethal infection in mice; conditions: Oral
From the text: In Vivo Antibacterial Evaluation (Table VII)

[34] = tested on: E. coli J3272 Tet sens.; test: MIC, agar dilution (Table IA); format: cell-based; conditions: unit assumed
[35] = tested on: Wild Type S30 extract, E. coli strain MRE600 (tetracycline sensitive); test: E. coli in vitro transcription and protein translation, 35S-methionine incorporation (Table VIII)
[36] = tested on: TetM S30 extract, derivative of E. coli MRE600 containing the tetM determinant; test: as above

Structure (SMILES)	Antibacterial activity (MIC) [1]	Antibacterial activity (MIC) [2]	Antibacterial activity (MIC) [3]	Antibacterial activity (MIC) [4]	Antibacterial activity (MIC) [5]	Antibacterial activity (MIC) [6]	Antibacterial activity (MIC) [7]	Antibacterial activity (MIC) [8]	Antibacterial activity (MIC) [9]	Antibacterial activity (MIC) [10]	Antibacterial activity (MIC) [11]	Antibacterial activity (MIC) [12]	Antibacterial activity (MIC) [13]	Antibacterial activity (MIC) [14]	Antibacterial activity (MIC) [15]	Antibacterial activity (MIC) [16]	Antibacterial activity (MIC) [17]	Antibacterial activity (MIC) [18]	Antibacterial activity (MIC) [20]	Antibacterial activity (MIC) [21]	other results
CCCCN(C)CC(=O)Nc1cc(N(C)C)c2c(c1O)C(=O)C1=C(O)C3(O)C(=O)C(C(N)=O)=C(O)C(N(C)C)C3CC1C2.Cl.Cl (stereo not drawn) [CCC, [4S-(4alpha,12aalpha)]-9-[[(Butylmethylamino)acetyl]amino]-4,7-Bis(dimethylamino)-1,4,4a,5,5a,6,11,12a-octahydro-3,10-12,12a-tetrahydroxy-1,11-dioxo-2-naphthacenecarboxamide dihydrochloride]	0.5 µg/mL	0.5 µg/mL	1 µg/mL	0.25 µg/mL	0.25 µg/mL	1 µg/mL	1 µg/mL	1 µg/mL	0.5 µg/mL	0.5 µg/mL	0.5 µg/mL	0.25 µg/mL	0.12 µg/mL	1 µg/mL	0.25 µg/mL	2 µg/mL	1 µg/mL	1 µg/mL	2 µg/mL	2 µg/mL	Antibacterial activity (MIC) [19]: 0.25 µg/mL; Antibacterial activity (MIC) [22]: 1 µg/mL; Antibacterial activity (MIC) [23]: 2 µg/mL; Antibacterial activity (MIC) ([24]; unit assumed): 0.12 µg/mL; Antibacterial activity (MIC) [25]: 2 µg/mL; Antibacterial activity (MIC) [26]: 1 µg/mL; Antibacterial activity (MIC) [27]: 0.5 µg/mL; Antibacterial activity (MIC) [28]: 16 µg/mL; Antibacterial activity (MIC) [29]: 0.25 µg/mL; Antibacterial activity (MIC) [30]: > 32 µg/mL; Antibacterial activity (MIC) [31]: 0.12 µg/mL; Antibacterial activity (MIC) [32]: 2 µg/mL
CN(C)CC(=O)Nc1cc(N(C)C)c2c(c1O)C(=O)C1=C(O)[C@]3(O)C(=O)C(C(=O)NCN4CCCC4)=C(O)[C@@H](N(C)C)C3CC1C2 (stereo partly drawn) [FFF, [4S-(4alpha,12aalpha)]-4,7-Bis(dimethylamino)-9-[[(dimethylamino)acetyl]amino]-1,4,4a,5,5a,6,11,12a-octahydro-3,10,12,12a-tetrahydroxy-1,11-dioxo-N-(1-pyrrolidinylmethyl)-2-naphthacenecarboxamide]	0.12 µg/mL	0.12 µg/mL	0.12 µg/mL	0.12 µg/mL	0.12 µg/mL	1 µg/mL	2 µg/mL	2 µg/mL	0.12 µg/mL	0.12 µg/mL	0.25 µg/mL	0.12 µg/mL	0.06 µg/mL	0.25 µg/mL	0.12 µg/mL	0.25 µg/mL	0.12 µg/mL	0.12 µg/mL	0.25 µg/mL	2 µg/mL	Antibacterial activity (MIC) [19]: 0.06 µg/mL; Antibacterial activity (MIC) [22]: 1 µg/mL; Antibacterial activity (MIC) [23]: 0.25 µg/mL; Antibacterial activity (MIC) [24]: ≧0.015; Antibacterial activity (MIC) [25]: 0.25 µg/mL; Antibacterial activity (MIC) [26]: 0.25 µg/mL; Antibacterial activity (MIC) [27]: 0.12 µg/mL; Antibacterial activity (MIC) [28]: 4 µg/mL; Antibacterial activity (MIC) [29]: 0.25 µg/mL; Antibacterial activity (MIC) [30]: 8 µg/mL; Antibacterial activity (MIC) [31]: 0.25 µg/mL; Antibacterial activity (MIC) [32]: 2 µg/mL
CN(C)CC(=O)Nc1cc(N(C)C)c2c(c1O)C(=O)C1=C(O)[C@]3(O)C(=O)C(C(=O)NCN4CCOCC4)=C(O)[C@@H](N(C)C)C3CC1C2 (stereo partly drawn) [GGG]	0.12 µg/mL	0.12 µg/mL	0.25 µg/mL	0.12 µg/mL	0.12 µg/mL	1 µg/mL	2 µg/mL	2 µg/mL	0.25 µg/mL	0.12 µg/mL	0.5 µg/mL	0.12 µg/mL	0.06 µg/mL	0.25 µg/mL	0.12 µg/mL	0.25 µg/mL	0.12 µg/mL	0.25 µg/mL	0.25 µg/mL	1 µg/mL	Antibacterial activity (MIC) [19]: 0.06 µg/mL; Antibacterial activity (MIC) [22]: 1 µg/mL; Antibacterial activity (MIC) [23]: 0.25 µg/mL; Antibacterial activity (MIC) ([24]; unit assumed): 0.03 µg/mL; Antibacterial activity (MIC) [25]: 0.25 µg/mL; Antibacterial activity (MIC) [26]: 0.25 µg/mL; Antibacterial activity (MIC) [27]: 0.12 µg/mL; Antibacterial activity (MIC) [28]: 4 µg/mL; Antibacterial activity (MIC) [29]: 0.5 µg/mL; Antibacterial activity (MIC) [30]: 8 µg/mL; Antibacterial activity (MIC) [31]: 0.25 µg/mL; Antibacterial activity (MIC) [32]: 2 µg/mL
CCN(CC)CC(=O)Nc1cc(N(C)C)c2c(c1O)C(=O)C1=C(O)[C@]3(O)C(=O)C(C(N)=O)=C(O)[C@@H](N(C)C)C3CC1C2.Cl.Cl (stereo partly drawn) [RR, [4S-(4alpha,12aalpha))-9-([(Diethylamino)acetyl)amino]-4,7-Bis(dimethylamino)-1,4,4a,5,5a,6,11,12a-octahydro-3,10,12,12a-tetrahydroxy-1,11-dioxo-2-naphthacenecarboxamide dihydrochloride]	0.25 µg/mL	0.25 µg/mL	0.25 µg/mL	0.25 µg/mL	0.25 µg/mL	0.5 µg/mL	1 µg/mL	0.25 µg/mL	0.12 µg/mL	0.25 µg/mL	0.5 µg/mL	0.12 µg/mL	0.12 µg/mL	1 µg/mL	0.25 µg/mL	1 µg/mL	0.5 µg/mL	0.5 µg/mL	1 µg/mL	2 µg/mL	ED50 [33]: 8 to 16 mg/kg; Antibacterial activity (MIC) [34]: 1 µg/mL; Antibacterial activity (MIC) [22]: 1 µg/mL; Antibacterial activity (MIC) [23]: 1 µg/mL; Antibacterial activity (MIC) ([24]; unit assumed): 0.06 µg/mL; Antibacterial activity (MIC) [25]: 1 µg/mL; Antibacterial activity (MIC) [26]: 0.5 µg/mL; Antibacterial activity (MIC) [27]: 0.25 µg/mL; Antibacterial activity (MIC) [28]: 4 µg/mL; Antibacterial activity (MIC) [29]: 0.25 µg/mL; Antibacterial activity (MIC) [30]: 32 µg/mL; Antibacterial activity (MIC) [31]: 0.06 µg/mL; Antibacterial activity (MIC) [32]: 1 µg/mL; % INHIBITION Wild Type S30 ([35]; 0.06 mg/ml): 93%; % INHIBITION Wild Type S30 ([35]; 0.2 mg/ml): 97%; % INHIBITION Wild Type S30 ([35]; 1.0 mg/ml): 99%; % INHIBITION TetM S30 ([36]; 0.06 mg/ml): 90%; % INHIBITION TetM S30 ([36]; 0.2 mg/ml): 97%; % INHIBITION TetM S30 ([36]; 1.0 mg/ml): 99%

— USRE40086E1, “Method for treating bacterial infection with novel 7-substituted-9-substituted amino 6-demethyl-6-deoxytetracyclines” (Wyeth Holdings Corporation, priority 1991, dated 2008)
